What was measured:
NonL = assay: In vitro assay of NonL as a CoA ligase (conversion of acids to CoA esters, HPLC); type: biochemical, Streptomyces griseus
From the text: Expression of nonL and characterization of NonL as a CoA ligase. The nonL gene was amplified from pBS2013 by PCR with forward primer of 5′-[…]-3′ (SEQ ID NO:12) (the NdeI site is underlined) and reverse primer of 3′-[…]-5′ (SEQ ID NO:13)(the EcoRI site is underlined) and cloned as a 1.7-kb NdeI-EcoRI fragment into the same sites of pET28a (Novagen, Madison, Wis.) to yield pBS2023. The expression of nonL in E. coli BL-21 (DE-3) (pBS2023) and purification of the resulting NonL protein by affinity chromatography on Ni-NTA resin were carried out under the standard conditions recommended by Novagen (FIG. 10). The incubation temperature was lowered to 15° C. to improve the solubility.
For in vitro assay of NonL as a CoA ligase, the complete assay solution (50 μl) consisted of 2 mM ATP, 2 mM CoA, 2 mM (±)-3, 10 mM KCl, 2 mM DTT, 5 mM MgCl2, 50 to 800 nM NonL in 10 mM Tris-HCl, pH 8.0. The reaction mixture was incubated at 30° C. for 2 hr and analyzed by HPLC on an Alltima C18 column (4.6×250 mm, 5μ, 100 Å, Alltech, Deerfield, Ill.). The column was first eluted in 20 mM NH4Ac, pH 5.8, for 5 min, followed by linear gradient from 0% to 50% CH3CN in 20 mM NH4Ac, pH 5.8 for 10 min, and maintained at 50% CH3CN in 20 mM NH4Ac for an additional 10 min, with flow rate of 0.8 ml/min and detection at 260 nm.
On the basis of its high sequence homology to a family of CoA ligases, the inventors reasoned that NonL, rather than directly contributing to the C—O bond-forming steps, instead activates (±)-3 into CoA esters (±)-2 that are then tetramerized into 1 by the NonJK KSs. To validate this hypothesis, the inventors expressed nonL in E. coli, purified NonL as a His6-tagged fusion protein (FIG. 10), and characterized NonL as a CoA ligase. The inventors monitored the in vitro assay of NonL by HPLC analysis: NonL catalyzes the conversion of (±)-3 to (±)-2, requiring CoA and ATP as co-substrates. Under the condition examined, 80% of (±)-3 was converted to (±)-2 in 2 hrs, confirming that NonL recognizes both (+)- and (−)-3 as substrates (FIG. 7). The identity of (±)-2 was verified by ESI-MS, yielding a characteristic (M−2H)^2− ion at m/z=474.7, consistent with the molecular formula of C31H52N7O19P3S.
In this particular experiment, the inventors expanded the category of synthetic 8 derivatives to determine the degree of flexibilities of each process in macrotetrolide biosynthesis. With minor modifications in the previously described method, (±)-8-n-propyl-nonactate (8), (±)-epi-8-n-propyl-nonactate (A), (±)-2-n-propyl-nonactate (B), and (±)-epi-2-n-propyl-nonactate (C) were prepared. These four compounds were tested for the CoA-activated by using purified NonL. […] The chromosomal DNA fragment encompassing nonJ and nonL from S. griseus DSM40695 was subcloned into pIJ4123 under the control of thiostrepton inducible promoter (tipAp) to generate pBS2045 that was introduced into S. lividans TK-24. For pIJ4123, see the reference; Takano, E.; White, J.; Thompson, C. J.; Bibb, M. J. Gene 1995, 160, 133.

NonJ = assay: Dimer formation with cell-free extract of S. lividans (pBS2045) harboring nonL and nonJ; type: biochemical, Streptomyces griseus; details: CFE of S. lividans (pBS2045)
NonJ, sequence (as listed by the source): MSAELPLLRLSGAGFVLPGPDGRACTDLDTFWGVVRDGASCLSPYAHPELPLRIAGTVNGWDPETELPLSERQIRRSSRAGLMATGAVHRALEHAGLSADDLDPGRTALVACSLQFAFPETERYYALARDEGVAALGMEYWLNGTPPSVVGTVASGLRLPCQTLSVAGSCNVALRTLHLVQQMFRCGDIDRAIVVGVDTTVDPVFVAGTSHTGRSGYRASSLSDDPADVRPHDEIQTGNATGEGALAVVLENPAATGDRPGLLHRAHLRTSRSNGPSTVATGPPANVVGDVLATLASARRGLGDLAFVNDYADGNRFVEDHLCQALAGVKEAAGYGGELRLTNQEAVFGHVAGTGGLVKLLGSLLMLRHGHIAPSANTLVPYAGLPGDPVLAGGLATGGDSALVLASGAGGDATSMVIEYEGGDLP
Experimental: Cell-free extract (CFE) preparation: S. lividans (pBS2045) were grown on Yeast Extract-Malt Extract (YEME, 34% sucrose) media supplemented with kanamycin (50 μg/ml), at 30° C. and 300 rpm for 1 d and added with thiostrepton (5 μg/ml). The thiostrepton-treated culture was maintained in the same condition for 1 d and then harvested by centrifugation (13,600 g, 20 min, 4° C.). Cell were lysed in 30 ml of 100 mM sodium phosphate buffer (pH, 8.0)-1 mM EDTA-50 mM KCl-10% glycerol with lysozyme (2 mg/ml) for 30 min at 4° C., sonicated for thirty 10-sec bursts at 300 W with a 30-sec cooling period between each burst. […]
Conditions for CFE-assay and chemical analysis: The assay solution consisted of 1 to 2 mM each of (±)-6, CoA, and ATP and 0.8 mg/ml of protein in 10 mM Tris-Cl (pH, 8.0)-10 mM KCl-2 mM DTT-5 mM MgCl2, and incubated at 30° C. for 1 h to 3 hs. […] The organic layer was analyzed for 1 by Thin-Layer Chromatography (TLC), Evaporative Light-Scattering Detector (ELSD)-High Performance Liquid Chromatography (HPLC), and positive Matrix-Assisted Laser Desorption Ionization (MALDI)-Mass Spectrometry (MS) analysis as previously described.^5d The aqueous layer was analyzed by HPLC with UV-detection, from which relevant peaks were collected and subjected to negative MALDI-MS analysis. […]

With CC(O)CC1CCC(C(C)C(=O)O)O1 (racemic) [(±)-3, nonactic acid] as the compound, how does the “conversion of (±)-3 to (±)-2 by NonL” value (NonL; in 2 hrs, 30° C., 2 mM ATP, 2 mM CoA, 2 mM (±)-3) read?
The value was 80%.

(±)-2-n-propyl-nonactate [B] was tested. Which “conversion into CoA derivative by purified NonL” value (“conversion into CoA derivative” for short) (NonL) did it give?
Its value is “no conversion was evident”.

For (±)-8-n-propyl nonactate [compound 8], which “conversion into CoA derivative” value (NonL) is on record?
The value was “efficiently converted”.

And the “dimer (dimeric CoA ester) formation by NonJ” value (NonJ)?
Its value is “converted the dimeric 8-CoA”.

Which “conversion into CoA derivative” value (NonL) does the source give for (±)-epi-2-n-propyl-nonactate here?
Its value is “no conversion was evident”.

(±)-epi-8-n-propyl-nonactate was tested. Which “conversion into CoA derivative” value (NonL) did it give?
Its value is “efficiently converted”.

And the “dimer (dimeric CoA ester) formation by NonJ” value (NonJ)?
The value was “no dimeric A-CoA was found”.
